Results reported in the NIST ThermoML archive (doi:10.1021/acs.jced.5b00260).

Test: mn = molality of the nth substance listed, in mol/kg
Details: 100 kPa, Liquid, Vibrating tube method

C[C@H](N)C(=O)O [(S)-2-aminopropanoic acid] + O
mass density [kg/m3]
Details | m1 = 0.1 | m1 = 0.2 | m1 = 0.3 | m1 = 0.4
298.2 K | 999.9 | 1002.7 | 1005.5 | 1008.2
303.2 K | 998.4 | 1001.9 | 1004.1 | 1006.8
308.2 K | 996.8 | 1000.1 | 1002.3 | 1004.1
